This note sets out measurements from ChEMBL document CHEMBL1828593 (Bioorg Med Chem, 2011).

Test [1] addresses T1, Neuronal acetylcholine receptor subunit alpha-7 (Homo sapiens, UniProt P36544). The test is described as follows: Displacement of [3H]-MLA from human alpha7 nAChR expressed in human SH-SY5Y cells after 1.5 hrs by liquid scintillation counting. It counts as cell-based.
For test [2], the target named is T2, Neuronal acetylcholine receptor; alpha4/beta2 (Homo sapiens, UniProt P17787+P43681). Kind of test: Antagonist activity at human alpha4beta2 nAChR expressed in Xenopus oocytes assessed as increase of acetylcholine-induced effect by electrophysiology assay. It counts as functional, cell-based, Oocyte.
T2 sequence (P17787 whole entry): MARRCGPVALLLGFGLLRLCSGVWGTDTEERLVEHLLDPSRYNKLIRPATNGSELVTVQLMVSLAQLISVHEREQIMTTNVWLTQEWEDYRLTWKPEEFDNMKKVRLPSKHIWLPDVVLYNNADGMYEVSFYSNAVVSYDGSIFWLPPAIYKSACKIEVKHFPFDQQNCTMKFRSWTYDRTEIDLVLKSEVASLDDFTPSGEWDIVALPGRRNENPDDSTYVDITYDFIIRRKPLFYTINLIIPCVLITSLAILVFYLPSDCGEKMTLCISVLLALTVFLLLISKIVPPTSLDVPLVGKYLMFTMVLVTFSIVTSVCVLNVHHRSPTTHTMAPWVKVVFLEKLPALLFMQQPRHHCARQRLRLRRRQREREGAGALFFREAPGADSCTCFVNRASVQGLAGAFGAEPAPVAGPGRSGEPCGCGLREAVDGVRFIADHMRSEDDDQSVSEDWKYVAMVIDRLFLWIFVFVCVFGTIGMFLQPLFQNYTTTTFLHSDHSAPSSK
T2 sequence (P43681 whole entry): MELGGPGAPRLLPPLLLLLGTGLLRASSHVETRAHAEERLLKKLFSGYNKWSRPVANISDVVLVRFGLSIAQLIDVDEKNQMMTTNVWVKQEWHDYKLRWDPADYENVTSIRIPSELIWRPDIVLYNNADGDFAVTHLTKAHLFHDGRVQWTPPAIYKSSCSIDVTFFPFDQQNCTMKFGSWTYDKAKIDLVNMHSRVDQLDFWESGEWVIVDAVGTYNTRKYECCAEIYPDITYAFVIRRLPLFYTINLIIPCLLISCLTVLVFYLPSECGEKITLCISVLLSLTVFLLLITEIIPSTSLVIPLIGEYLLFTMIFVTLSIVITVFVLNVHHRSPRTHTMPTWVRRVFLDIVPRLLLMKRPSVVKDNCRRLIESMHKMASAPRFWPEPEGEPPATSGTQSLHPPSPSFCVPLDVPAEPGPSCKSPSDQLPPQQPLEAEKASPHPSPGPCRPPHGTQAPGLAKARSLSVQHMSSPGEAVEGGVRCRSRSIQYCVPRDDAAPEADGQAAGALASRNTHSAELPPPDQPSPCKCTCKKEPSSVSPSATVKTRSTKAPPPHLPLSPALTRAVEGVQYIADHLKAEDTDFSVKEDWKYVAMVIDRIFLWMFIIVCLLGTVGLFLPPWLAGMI
The target of test [3] is T2, Neuronal acetylcholine receptor; alpha4/beta2. The test is described as follows: Displacement of [3H]epibatidine from human alpha4beta2 nAChR expressed in human HEK293T cells after 1.5 hrs by liquid scintillation counting. It counts as cell-based. The settings on record: HEK-293T. For orientation: In a radioligand displacement assay an active substance lowers the binding of a labelled ligand.

The target of test [4] is Acetylcholine-binding protein (Lymnaea stagnalis, UniProt P58154). The test is described as follows: Displacement of [3H]-epibatidine from histidine-tagged Lymnaea stagnalis AChBP expressed in Sf9 cells after 1.5 hrs by liquid scintillation counting.
Acetylcholine-binding protein, sequence (P58154 whole entry): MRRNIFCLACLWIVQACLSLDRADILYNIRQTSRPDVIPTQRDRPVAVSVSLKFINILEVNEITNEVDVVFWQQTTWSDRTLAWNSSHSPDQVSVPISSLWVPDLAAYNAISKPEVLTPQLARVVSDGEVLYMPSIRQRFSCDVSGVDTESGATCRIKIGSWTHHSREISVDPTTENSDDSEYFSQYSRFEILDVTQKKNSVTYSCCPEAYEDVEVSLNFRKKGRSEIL
Test [5] deals with T2, Neuronal acetylcholine receptor; alpha4/beta2. The test is described as follows: Antagonist activity at human alpha4beta2 nAChR expressed in Xenopus oocytes assessed as inhibition of acetylcholine-induced effect at 100 uM by electrophysiology assay. It counts as functional, cell-based. The settings on record: Oocyte.
Test [6] concerns the target T1, Neuronal acetylcholine receptor subunit alpha-7. Kind of test: Antagonist activity at human alpha7 nAChR expressed in Xenopus oocytes assessed as acetylcholine-induced effect at 100 uM by electrophysiology assay. The settings on record: Oocyte. It is filed as functional, cell-based.
For test [7] the target is unchanged. The test is described as follows: Antagonist activity at human alpha7 nAChR expressed in Xenopus oocytes assessed as increase of acetylcholine-induced effect by electrophysiology assay. It counts as functional, cell-based, Oocyte.
The nature of test [8]: Displacement of [3H]epibatidine from histidine-tagged Aplysia californica AChBP expressed in Sf9 cells after 1.5 hrs by liquid scintillation counting.
Test [9] concerns the target T2, Neuronal acetylcholine receptor; alpha4/beta2. The test is described as follows: Competitive inhibition of human alpha4beta2 nAChR expressed in Xenopus oocytes by electrophysiology assay. It is filed as cell-based. The settings on record: Oocyte.
Test [10] shares this target. The test is described as follows: Antagonist activity at human alpha4beta2 nAChR low affinity site expressed in Xenopus oocytes assessed as inhibition of acetylcholine-induced effect at 220 uM by electrophysiology assay. It is filed as functional, cell-based. The settings on record: Oocyte.
Test [11] shares this target. The test is described as follows: Antagonist activity at human alpha4beta2 nAChR high affinity site expressed in Xenopus oocytes assessed as inhibition of acetylcholine-induced effect at 220 uM by electrophysiology assay. It is filed as functional, cell-based. Particulars: Oocyte.
Test [12] concerns the target T1, Neuronal acetylcholine receptor subunit alpha-7. The test is described as follows: Antagonist activity at human alpha7 nAChR low affinity site expressed in Xenopus oocytes assessed as inhibition of acetylcholine-induced effect at 20 uM by electrophysiology assay. It counts as functional, cell-based. The settings on record: Oocyte.
Test [13] has the same target. Kind of test: Competitive inhibition of human alpha7 nAChR expressed in Xenopus oocytes by electrophysiology assay. It is filed as cell-based. The settings on record: Oocyte.
The target is the same in test [14]. The test is described as follows: Antagonist activity at human alpha7 nAChR low affinity site expressed in Xenopus oocytes assessed as inhibition of acetylcholine-induced effect at 10 uM by electrophysiology assay. The settings on record: Oocyte. It counts as functional, cell-based.
Test [15] addresses T2, Neuronal acetylcholine receptor; alpha4/beta2. The test is described as follows: Antagonist activity at human alpha4beta2 nAChR high affinity site expressed in Xenopus oocytes assessed as inhibition of acetylcholine-induced effect at 55 uM by electrophysiology assay. It is filed as functional, cell-based. The settings on record: Oocyte.
For test [16] the target is unchanged. The test is described as follows: Antagonist activity at human alpha4beta2 nAChR low affinity site expressed in Xenopus oocytes assessed as inhibition of acetylcholine-induced effect at 55 uM by electrophysiology assay. It is filed as functional, cell-based. The settings on record: Oocyte.
For test [17] the target is unchanged. Kind of test: Antagonist activity at human alpha4beta2 nAChR high affinity site expressed in Xenopus oocytes assessed as inhibition of acetylcholine-induced effect at 10 uM by electrophysiology assay. It is filed as functional, cell-based. Particulars: Oocyte.
The target is the same in test [18]. Kind of test: Antagonist activity at human alpha4beta2 nAChR low affinity site expressed in Xenopus oocytes assessed as inhibition of acetylcholine-induced effect at 10 uM by electrophysiology assay. The settings on record: Oocyte. It is filed as functional, cell-based.
Test [19] addresses T1, Neuronal acetylcholine receptor subunit alpha-7. The test is described as follows: Antagonist activity at human alpha7 nAChR low affinity site expressed in Xenopus oocytes assessed as inhibition of acetylcholine-induced effect at 7 uM by electrophysiology assay. It is filed as functional, cell-based. The settings on record: Oocyte.

The term Ki denotes the equilibrium dissociation constant of an inhibitor or competing ligand from its target. A low value points to tighter binding. By EC50 is commonly meant the concentration giving half of the maximal effect. As usually defined, the inhibition is the drop in the measured response relative to a control, in per cent. As usually defined, the pKi is the Ki on a negative log10 scale, so that one unit is a factor of ten. High values mean a small Ki, low ones a large Ki.

Calls of active or inactive are those of the source. No cut-off for these calls is given here.

T1 sequence (P36544 whole entry): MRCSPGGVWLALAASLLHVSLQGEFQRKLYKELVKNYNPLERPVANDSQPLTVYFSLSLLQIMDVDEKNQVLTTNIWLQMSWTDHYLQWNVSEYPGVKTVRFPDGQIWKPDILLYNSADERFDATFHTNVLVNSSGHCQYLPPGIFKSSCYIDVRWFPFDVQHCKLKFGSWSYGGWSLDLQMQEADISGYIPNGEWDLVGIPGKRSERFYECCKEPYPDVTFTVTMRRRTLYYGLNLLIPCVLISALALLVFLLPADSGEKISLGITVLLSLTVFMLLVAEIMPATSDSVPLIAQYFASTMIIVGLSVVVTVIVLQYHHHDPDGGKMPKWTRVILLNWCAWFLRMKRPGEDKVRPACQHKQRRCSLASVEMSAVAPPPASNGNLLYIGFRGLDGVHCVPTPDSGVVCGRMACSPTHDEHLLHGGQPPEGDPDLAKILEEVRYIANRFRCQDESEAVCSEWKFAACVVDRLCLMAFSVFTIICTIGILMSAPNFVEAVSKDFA

In the case of `NCC(OCc1ccc(Cl)cc1Cl)c1ccccc1` (stereo not drawn), the Ki in [1] was no less than 31.6 µM; in test [4], 5.01 µM. For the same molecule, the EC50 in test [2] amounted to 10 µM. For the same molecule, the result in [3] was inactive.
With `O=C1CN(Cc2ccccc2)Cc2ccsc21`, the Ki in [1] and in [4] was no less than 31.6 µM in each case. Also, the inhibition entry in test [5] and in [6] was “inactive” in each case. Besides, the result in test [3] was inactive.
As for `CN1CC2Cc3ccccc3C1c1ccccc12` (stereo not drawn), the Ki was no less than 31.6 µM in [1] and 0.794 µM in [4]. Besides, the EC50 in test [2] is 10 µM. In addition, the result in test [3] was inactive.
As for `Cc1ccc(C(c2ccc(C)cc2)N(C)C)cc1`, the Ki in test [1] and in test [4] was no less than 31.6 µM in each case. The result in test [3] was inactive. In addition, the EC50 in test [7] worked out at 10 µM.
For the molecule `CN1CCN(Cc2ccccc2Sc2ccccc2)CC1`, the Ki in test [1] was 20 µM; in [4] it was 1.58 µM. For the same molecule, the result in test [3] was inactive.
Regarding `c1ccc2c(c1)CC1CNC2c2ccccc21` (stereo not drawn), the Ki in test [1] was no less than 31.6 µM; in test [4] it was 12.6 µM. For the same molecule, the EC50 in test [2] turned out to be 10 µM. Also, the result in test [3] was inactive.
On to `CSc1[nH]c2ccccc2c1CN1CCCCC1`, for which the Ki in test [1] was 3.98 µM; in test [4], 1.58 µM. The result in test [3] was inactive.
Regarding `c1ccc(C2CCN(CCc3nc4ccccc4[nH]3)CC2)cc1`, the Ki is no less than 31.6 µM in [1] and 2.51 µM in test [4]. For the same molecule, the outcome in test [3] was inactive. The EC50 in test [7] is 10 µM.
In the case of `CN1CCC(c2noc3ccccc23)CC1`, the Ki in test [1] is no less than 31.6 µM; in [4] it was 12.6 µM. For the same molecule, in test [3], the result was inactive.
As for `CC(=O)OCC[N+](C)(C)C` [ACETYLCHOLINE], in test [8], the pKi was 4.3. Moreover, in test [4], the affinity, expressed as Ki, was 6.31 µM.
As for `c1ccc2c(CN3CCCCC3)csc2c1`, the results for the Ki in [1] and in [4] were 15.8 µM and 1 µM, respectively. The result in [3] was inactive.
As for `CC1(C)C=C(c2cc(Br)c(C3=CC(C)(C)NC(C)(C)C3)s2)CC(C)(C)N1`, the Ki in [1] is no less than 31.6 µM; in test [4], 0.398 µM. The outcome in [3] was inactive.
Turning to `OC(COCc1ccc(Cl)cc1)CN1CCc2ccccc2C1` (stereo not drawn), the Ki is no less than 31.6 µM in test [1] and 1.58 µM in [4]. In test [3], the outcome was inactive.
As for `c1ccc2c(c1)CCc1ccccc1C2NC12CC3CC(CC(C3)C1)C2`, the Ki in test [1] and in test [4] was no less than 31.6 µM in each case. Besides, the inhibition result in test [5] and in test [6] was “inactive” in each case. Also, the result in [3] was inactive.
Take `CC(C)(C)C(N)/C=C/c1ccc(Cl)cc1Cl` (stereo not drawn): the values for the Ki in test [1] and in test [4] were no less than 31.6 µM and 12.6 µM, respectively. In test [3], the outcome was inactive.
In the same order, the values of `c1ccc2c3c([nH]c2c1)C1CCCN1CC3` (stereo not drawn) are no less than 31.6 µM, 1.26 µM and “inactive”.
Consider `c1ccc(Sc2ccccc2CN2CCCC2)cc1`, for which the figures for the Ki in test [1] and in test [4] were 15.8 µM and 0.2 µM, respectively. Besides, the outcome in test [3] was inactive.
For `CC1CC[N+]2(C)CCc3c([nH]c4ccccc34)C2C1` (stereo not drawn), the figures for the Ki in test [1] and in test [4] were no less than 31.6 µM and 0.631 µM, respectively. In addition, in test [3], the outcome was inactive.
On the same counts, the results for `NCc1ccsc1C(O)c1ccccc1` (stereo not drawn) are no less than 31.6 µM, 25.1 µM and “inactive”.
Consider `CC(Cc1ccccc1)NC1CN2CCC1CC2` (stereo not drawn), for which the values for the Ki in [1] and in test [4] were no less than 31.6 µM and 3.16 µM, respectively. Also, the outcome in test [3] was inactive.
On the same counts, the results for `C[N+]1(CCO)Cc2sc3ccc(Cl)cc3c2C1` (stereo not drawn) are 20 µM, 1 µM and “inactive”.
On the same counts, the results for `CC(C)(C)c1ccc(C(CN)c2ccccc2)cc1` (stereo not drawn) are no less than 31.6 µM, no less than 31.6 µM and “inactive”.
On the same counts, the results for `Cc1ccccc1C(OCCN1CCCCC1)c1ccccc1` (stereo not drawn) are 20 µM, 0.316 µM and “inactive”.
On to `Cc1ccc(C(OCC2CCC[N+](C)(C)C2)c2ccccc2)cc1` (stereo not drawn), for which the Ki in test [1] is 10 µM; in test [4], 0.501 µM. For the same molecule, in test [3], the outcome was inactive.
Turning to `NCC(c1ccc(Cl)cc1)c1ccc(Sc2ccccc2)cc1` (stereo not drawn), the Ki in [1] and in [4] was no less than 31.6 µM throughout. The inhibition result in test [9] was “inactive”. Further, the result in test [3] was inactive. Also, the EC50 in [7] is 10 µM.
In the case of `CC1CC2(CCCCC2)NCc2ccccc21` (stereo not drawn), the Ki in [1] is no less than 31.6 µM; in test [4] it was 0.631 µM. Moreover, the outcome in test [3] was inactive.
In the same order, the values of `ClC1(CNc2ccccc2)CCN(Cc2ccccc2)CC1` are no less than 31.6 µM, 1.58 µM and “inactive”.
For `CC1NCCOC1c1ccc(Cl)cc1` (stereo not drawn), the Ki in test [1] was no less than 31.6 µM; in test [4], 12.6 µM. The inhibition came to 81% in test [10] and 19% in test [11]. Further, the result in test [3] was inactive. In test [7], the EC50 turned out to be 10 µM. Moreover, the inhibition entry in test [12] is “Active”.
Regarding `NCC(c1ccccc1)c1ccc(-c2ccccc2)cc1` (stereo not drawn), the Ki was no less than 31.6 µM in test [1] and 12.6 µM in test [4]. For the same molecule, in [2], the EC50 was 10 µM. In addition, the result in test [3] was inactive.
Regarding `CCN(CC)Cc1csc2ccc(Cl)cc12`, the Ki in test [1] is no less than 31.6 µM; in test [4] it was 3.98 µM. Besides, the outcome in [3] was inactive.
On the same counts, the results for `c1ccc(CN2CCN(CCCSc3cc4ccccc4[nH]3)CC2)cc1` are no less than 31.6 µM, 2 µM and “inactive”.
With `CC1CCN(CCc2cc3ccccc3[nH]2)CC1`, the figures for the inhibition constant Ki in test [1] and in test [4] were no less than 31.6 µM and 10 µM, respectively. In addition, in test [3], the result was inactive. The EC50 in test [7] worked out at 10 µM.
Consider `C=CC1CN2CCC1CC2c1[nH]c2ccccc2c1CCO` (stereo not drawn), for which the values for the Ki in test [1] and in test [4] were no less than 31.6 µM and 0.398 µM, respectively. The result in test [3] was inactive.
On the same counts, the results for `O=C1COc2ccccc2N1CCCCN1CCc2ccccc2C1` are no less than 31.6 µM, 0.501 µM and “inactive”.
With `c1ccc(C2CCN(CCc3cc4ccccc4[nH]3)CC2)cc1`, the inhibition entry in test [13] and in [14] was “Active” in each case. The Ki in test [1] was no less than 31.6 µM; in test [4] it was 1 µM. For the same molecule, in [9], the inhibition entry is “inactive”. Also, the outcome in test [3] was inactive. In addition, the EC50 in test [7] is 10 µM. The molecule also yielded a pKi in [8] of 5.3. The inhibition in [15] is 25%; in test [16], 75%.
Consider `NCC(OCc1ccc(Cl)cc1)c1ccccc1` (stereo not drawn), for which the inhibition result in test [13] and in [19] was “Active” in each case. Further, the Ki in test [1] was no less than 31.6 µM; in test [4] it was 6.31 µM. The inhibition is 13% in test [17] and 87% in test [18]. The inhibition result in test [9] is “inactive”. Also, in test [2], the EC50 turned out to be 10 µM. Moreover, the result in test [3] was inactive. The molecule also gave a pKi in test [8] of 4.9.
